According to patent publication US20050085463A1 (priority 2003, published 2005):

What was measured:
M4 muscarinic receptor = target: T1, M4 muscarinic receptor (Homo sapiens, UniProt P08173); assay: R-SAT agonist assay; assay type: cell-based; parameters: expressed in transfected cells; host or cells: NIH/3T3; settings: relative to carbachol, No response/nr = no agonist activity up to 10 μM
T1 sequence (P08173 1-479): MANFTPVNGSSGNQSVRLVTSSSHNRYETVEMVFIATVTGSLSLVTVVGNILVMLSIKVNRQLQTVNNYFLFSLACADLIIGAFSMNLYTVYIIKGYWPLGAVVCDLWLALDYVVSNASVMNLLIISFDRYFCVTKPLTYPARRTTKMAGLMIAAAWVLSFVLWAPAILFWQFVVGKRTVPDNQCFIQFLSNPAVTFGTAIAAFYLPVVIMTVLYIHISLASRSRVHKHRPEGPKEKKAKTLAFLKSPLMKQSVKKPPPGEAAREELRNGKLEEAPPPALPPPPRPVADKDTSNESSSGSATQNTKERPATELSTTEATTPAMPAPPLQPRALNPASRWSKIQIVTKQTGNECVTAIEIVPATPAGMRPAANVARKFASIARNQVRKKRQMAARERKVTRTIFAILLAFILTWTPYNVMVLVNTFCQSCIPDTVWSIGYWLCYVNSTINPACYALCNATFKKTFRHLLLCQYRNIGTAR

M5 muscarinic receptor = target: T2, M5 muscarinic receptor (Homo sapiens, UniProt P08912); assay: R-SAT agonist assay; assay type: cell-based; parameters: expressed in transfected cells; host or cells: NIH/3T3; settings: R-SAT; relative to carbachol; No response/nr = no agonist activity up to 10 μM
T2 sequence (P08912 1-532): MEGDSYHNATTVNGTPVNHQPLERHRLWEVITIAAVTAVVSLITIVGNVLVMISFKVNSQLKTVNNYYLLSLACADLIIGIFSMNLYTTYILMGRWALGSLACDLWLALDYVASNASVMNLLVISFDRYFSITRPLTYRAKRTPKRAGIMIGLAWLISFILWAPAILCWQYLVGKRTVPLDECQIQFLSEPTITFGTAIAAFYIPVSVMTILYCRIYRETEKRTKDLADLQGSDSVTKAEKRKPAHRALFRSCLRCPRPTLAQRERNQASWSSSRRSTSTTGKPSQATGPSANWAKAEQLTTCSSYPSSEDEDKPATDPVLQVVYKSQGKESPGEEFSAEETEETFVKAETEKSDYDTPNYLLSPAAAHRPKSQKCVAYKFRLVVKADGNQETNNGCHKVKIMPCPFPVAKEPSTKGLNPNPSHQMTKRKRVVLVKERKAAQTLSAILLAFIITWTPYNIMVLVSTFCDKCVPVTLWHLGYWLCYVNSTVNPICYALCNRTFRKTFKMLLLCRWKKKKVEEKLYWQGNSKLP

M2 muscarinic receptor = target: T3, M2 muscarinic receptor (Homo sapiens, UniProt P08172); assay: R-SAT agonist assay; settings: R-SAT; relative to carbachol; No response/nr = no agonist activity up to 10 μM
T3 sequence (P08172 1-466): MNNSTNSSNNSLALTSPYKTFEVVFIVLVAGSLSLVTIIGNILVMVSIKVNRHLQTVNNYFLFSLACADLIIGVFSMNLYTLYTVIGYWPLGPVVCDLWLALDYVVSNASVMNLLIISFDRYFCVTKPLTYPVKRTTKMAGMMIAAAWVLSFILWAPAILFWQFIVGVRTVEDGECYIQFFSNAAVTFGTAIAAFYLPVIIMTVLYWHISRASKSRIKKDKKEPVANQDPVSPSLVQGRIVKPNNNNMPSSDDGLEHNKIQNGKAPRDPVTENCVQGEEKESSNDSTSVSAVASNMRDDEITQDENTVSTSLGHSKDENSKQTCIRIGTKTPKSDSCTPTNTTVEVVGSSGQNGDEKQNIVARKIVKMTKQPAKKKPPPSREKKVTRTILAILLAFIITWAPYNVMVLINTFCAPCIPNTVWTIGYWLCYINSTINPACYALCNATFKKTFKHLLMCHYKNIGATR

[1] = Serum levels during clozapine treatment of schizophrenic patients; assay type: in vivo, human
Protocol: The analysis was adjusted for baseline level of symptom severity, age, and dose, since dose was not fixed. […] Regarding co-treatment with anticholinergic agents, only two subjects in this sample were treated with benztropine. […] Lastly, ten of the patients in this study were treated with benzodiazepines at the time the levels of clozapine and NDMC were measured.
Patients were classified as treatment resistant or not by standard criteria (Kane et al 1988), and clinical ratings and neuropsychological test scores were obtained by trained raters who were blinded to plasma drug levels.

[2] = test system: amphetamine-induced hyperactivity; assay: Reversal of amphetamine-induced hyperactivity; assay type: in vivo, Non-Swiss Albino (NSA) mice; settings: p.o.
[3] = test system: apomorphine-induced climbing; assay: Reversal of apomorphine-induced climbing; settings: s.c.
[4] = test system: MK-801-induced hyperactivity; assay: Reversal of MK-801-induced hyperactivity; assay type: in vivo, Non-Swiss Albino (NSA) mice
Text: Clinically effective antipsychotic drugs can block the behavioral effects of non-competitive N-methyl-D-aspartate […], such as MK-801. […]. […]

M1 muscarinic receptor = target: T4, M1 muscarinic receptor (Homo sapiens, UniProt P11229); assay: R-SAT agonist assay; assay type: cell-based; parameters: expressed in transfected cells; host or cells: NIH/3T3
T4 sequence (P11229 1-460): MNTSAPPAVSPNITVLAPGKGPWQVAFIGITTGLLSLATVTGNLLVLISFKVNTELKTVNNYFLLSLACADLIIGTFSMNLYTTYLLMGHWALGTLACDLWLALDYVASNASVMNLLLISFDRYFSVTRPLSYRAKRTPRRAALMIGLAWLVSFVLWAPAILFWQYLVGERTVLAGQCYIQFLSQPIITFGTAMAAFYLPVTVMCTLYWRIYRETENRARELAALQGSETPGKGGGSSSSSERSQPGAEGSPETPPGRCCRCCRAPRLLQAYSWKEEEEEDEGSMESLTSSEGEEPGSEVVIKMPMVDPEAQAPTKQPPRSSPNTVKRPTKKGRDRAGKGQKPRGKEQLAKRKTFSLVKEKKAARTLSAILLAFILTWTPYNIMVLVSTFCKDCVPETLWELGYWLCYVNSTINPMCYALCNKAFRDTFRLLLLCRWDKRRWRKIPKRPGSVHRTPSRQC

M3 muscarinic receptor = M3 muscarinic receptor (Homo sapiens, UniProt P20309); assay: R-SAT agonist assay; settings: R-SAT; relative to carbachol; No response/nr = no agonist activity up to 10 μM
[5] = target: human monoaminergic receptors; assay: R-SAT functional profiling; assay type: cell-based; settings: data not shown
Text: It has long been appreciated that antagonism of central muscarinic receptors can attenuate the EPS induced by antipsychotics (Miller and Hiley 1974). […] .

[6] = clozapine-treated schizophrenics
[7] = clozapine-treated treatment resistant schizophrenics

Chain of M3 muscarinic receptor (P20309 whole entry): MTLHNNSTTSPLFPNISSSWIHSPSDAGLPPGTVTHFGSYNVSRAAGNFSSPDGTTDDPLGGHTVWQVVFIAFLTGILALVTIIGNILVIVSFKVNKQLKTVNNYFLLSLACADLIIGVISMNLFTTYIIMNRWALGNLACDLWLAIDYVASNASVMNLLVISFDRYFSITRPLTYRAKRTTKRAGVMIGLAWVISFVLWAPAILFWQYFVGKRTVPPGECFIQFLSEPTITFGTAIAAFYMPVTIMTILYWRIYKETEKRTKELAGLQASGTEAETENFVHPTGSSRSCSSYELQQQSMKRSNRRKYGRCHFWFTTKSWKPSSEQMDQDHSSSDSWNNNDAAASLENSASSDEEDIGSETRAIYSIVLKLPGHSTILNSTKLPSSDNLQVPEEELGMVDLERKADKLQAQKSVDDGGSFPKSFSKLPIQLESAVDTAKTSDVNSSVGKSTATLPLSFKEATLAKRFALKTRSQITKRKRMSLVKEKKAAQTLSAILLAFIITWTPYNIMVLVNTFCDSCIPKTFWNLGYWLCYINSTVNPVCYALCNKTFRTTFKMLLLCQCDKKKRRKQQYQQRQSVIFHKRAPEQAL

C[N+](C)(C)CCOC(N)=O [Carbachol]
M4 Efficacy (M4 muscarinic receptor): 96 ± 3% | M5 Efficacy (M5 muscarinic receptor): 105 ± 3%

CN1CCN(C2=Nc3cc(Cl)ccc3Nc3ccccc32)CC1 [Clozapine, 8-chloro-11-(4-methyl-1-piperazinyl)-5H-dibenzo [b,e][1,4] diazepine, reference compound]
M2 Efficacy (M2 muscarinic receptor): 65 ± 8% | Serum level, All Subjects at 6 Months (92) [1, 6]: 365 ± 285 ng/mL | Serum level, All Subjects at 6 Weeks (86) [1, 6]: 287 ± 190 ng/mL | Serum level, Non-Responders (25) [1, 7]: 268 ± 207 ng/mL | Serum level, Responders (26) [1, 7]: 453 ± 328 ng/mL | Serum level, All TR Subjects (59) ([1]; clozapine-treated treatment resistant schizophrenics, drawn 12 hours after last clozapine dose): 393 ± 301 ng/mL | minimal effective dose, reduction of amphetamine-induced hyperactivity [2]: 3 mg/kg | minimal effective dose, reduction of apomorphine-induced climbing [3]: 10 mg/kg | minimal effective dose, attenuation of MK-801-induced hyperactivity ([4]; p.o.): 3 mg/kg | minimal effective dose, attenuation of MK-801-induced hyperactivity ([4]; s.c.): 1 mg/kg | M5 Efficacy (M5 muscarinic receptor): No response and nr

O=C(CCCN1CCC(O)(c2ccc(Cl)cc2)CC1)c1ccc(F)cc1 [Haloperidol]
dose that completely attenuated apomorphine-induced climbing [3]: 0.1 mg/kg

Cc1ccc(C2(O)CCN(CCCC(=O)c3ccc(F)cc3)CC2)cc1 [Moperone, reference compound]
EC50 (M1 muscarinic receptor; R-SAT functional agonist screen of 462-compound library, read-out: EC50 at human M1 receptor): > 1000 nM

Cc1cc2c(s1)Nc1ccccc1N=C2N1CCNCC1 [N-desmethylolanzapine]
M2 Efficacy (M2 muscarinic receptor): No response | M4 Efficacy (M4 muscarinic receptor): No response | M3 Efficacy (M3 muscarinic receptor): No response | M1 Efficacy (M1 muscarinic receptor; R-SAT, relative to carbachol, No response/nr = no agonist activity up to 10 μM): No response | M5 Efficacy (M5 muscarinic receptor): No response

Cc1cc2c(s1)Nc1ccccc1N=C2N1CCN(C)CC1 [Olanzapine]
M2 Efficacy (M2 muscarinic receptor): No response | M4 Efficacy (M4 muscarinic receptor): No response | M5 Efficacy (M5 muscarinic receptor): No response

CCCCCCOc1nsnc1C1=CCCN(C)C1 [Xanomeline]
M4 Efficacy (M4 muscarinic receptor): 116 ± 9% | M5 Efficacy (M5 muscarinic receptor): 86 ± 12%

C[N+]1([O-])CCN(C2=Nc3cc(Cl)ccc3Nc3ccccc32)CC1 [clozapine-N-oxide]
pKi, functional activity at human monoaminergic receptors [5]: < 6.0
